Reference: patent US20020025307A1, “Bone sialoprotein based toxic gene therapy for the treatment of calcified tumors and tissues” (priority 1998, published 2002)

How the values were obtained:
[1] = Body weight of experimental animals in the PC-3 tumor study; type: in vivo, athymic nude (nu/nu) mice; settings: nude mice bearing PC3 tumors; intratumoral Ad-BSP-TK; GCV 40 mg/kg i.p.
Source text: FIG. 10 represents an in vivo experiment performed with 16 animals. Briefly, congenitally athymic nude (nu/nu) mice (Harlan Co., Houston, Tex.) 5 to 6 weeks of age, were inoculated s.c. with 2 million PC3 prostate cancer cells. When the tumor became palpable (4-5 mm in diameter), approximately 10 days after cell injection, the animals were randomly assigned to four experimental groups: group: 1, control group with no treatment; 2, intratumoral PBS on days 10, 17, 24 and 30; 3, Ad-BSP-TK only; and 4, Ad-BSP-TK plus GCV given on days 10-40. For Ad-BSP-TK injections, a microliter syringe fitted with a 28 gauge needle was used to deliver 75 μl of Ad-BSP-TK (1×10^9 plaque-forming units). The Ad-BSP-TK was injected intratumorally along both the long and short axes of the tumor; one injection parallel to the long axis, and one perpendicular to the axis. The needle point was then rotated within the tumor to maximize the area of Ad delivery. Tumor volume was calculated by the following formula: volume (a rotational ellipsoid)-M1xM2^2×0.5236 (M1, long axis; M2, short axis; Ko. S-C., Gotoh, A., Thalmann, G. N., Zhou, H. E., Johnston, D. A, Zhang, W. W., Kao, C., and Chung, L. W. K. Molecular therapy with recombinant p53 adenovirus in an androgen independent, metastatic human prostate cancer model. Hum. Gene Ther., 7:1683-1691, 1996). […]

BSP promoter = experiment: BSP promoter-driven luciferase reporter activity in transfected cells; type: cell-based, human; settings: mineralization conditions versus T media, 2186 base pair construct
Experimental: Cells ([…]) were exposed to a BSP promoter-luciferase vector (2.5 ug) with liposome mediated transfection for 4-6 hours, then allowed to grow approximately 2 days at which time cell lysates were obtained and assayed for relative luciferase activity (RLU). All values were standardized with cotransfection of CMV-betagalactosidase reporter plasmid (0.5 ug).

## Nc1nc(O)c2ncn(COC(CO)CO)c2n1 [GCV, Gancyclovir]
[1]
  effect on body weight: did not adversely affect the body weight

## O=C1O[C@H]([C@@H](O)CO)C(O)=C1O [L-ascorbic acid]
BSP promoter; C4-2B4
  BSP promoter expression as RLU: hightened response
BSP promoter; Du-145
  BSP promoter expression as RLU: hightened response
BSP promoter; PC-3
  BSP promoter expression as RLU: hightened response
